Laboratory results: US20230286968A1, “ARYLOXAZOLO SPIRAL RING DERIVATIVES FOR THE TREATMENT AND PROPHYLAXIS OF HEPATITIS B VIRUS INFECTION” (Hoffmann-La Roche Inc., priority 2020, published 2023)
Where two headings read alike, the source gives them in different places.

Tests used:
HBeAg = experiment: PHH natural infection assay, HBeAg (alphalisa); format: cell-based, HBV
Description: (§1) Detailed procedures regarding primary human hepatocyte (PHH) HBV natural infection assay are described as below. One tube of frozen PHH (10 million cells) is thawed in 37° C. water bath and then transferred to 20 mL of PHH thawing medium (Sigma, InVitroGRO HT Medium, Cat. S03319) with gently mixing. The cells were then centrifuged at […] for 5 min, the supernatant was discarded and the tube was refilled with 25 mL of PHH plating medium (Sigma, InVitroGRO CP Medium, Cat. S03317). The tube was shaken very gently to re-suspend all cells, and then 50 μL of cells were transferred to each well 384-well collagen I coated plate with appropriate liquid handling equipment, e.g. Integra VIAFLO384 or Agilent Bravo. The cells were then cultured for 24 hours in a cell incubator. For HBV infection, after PHH attachment on the culture plate, the plating medium was removed and replenished with PHH culture medium containing HBV virus. The PHH culture medium was prepared with Dulbecco's Modified Eagle Medium (DMEM)/F12 (1:1 in volume ratio) containing 10% fetal bovine serum (Gibco, Cat. 10099141), 5 ng/mL human epidermal growth factor (Gibco, Cat.PHG0311L), 20 ng/mL dexamethasone (Sigma, Cat.D4902-100 mg), 250 ng/mL human recombinant insulin (Gibco, Cat.41400045) and 100 U/mL penicillin. HBV virus at 200 genome equivalent (GE) per cell with 4% PEG8000 (Sigma, Cat.P1458) containing culture medium were added to the PHH culture medium for infection. The cells were then cultured for 24 hours in cell incubator. Then the cell culture supernatant was removed. The HBV-infected PHH were cultured with sandwich culture method with PHH culture medium containing […] and 0.25 mg/mL matrix gel for 72 hours. The supernatant was then refreshed with PHH culture medium containing different concentrations of testing compounds for two times with 72-hour interval. At the end of treatment, the supernatant was collected for viral markers measurements, including HBsAg, HBeAg, HBV DNA and cytotoxicity. HBsAg and HBeAg were detected using alphalisa method using their specific antibodies. For HBV DNA detection, HBV DNA Quantitative Fluorescence Diagnostic Kit (Sansure Biotech Inc.) was used following the manufacture's protocol. Cytotoxicity was determined using Cell Counting Kit-8 (CCK8, Dojindo Molecular Technologies, Inc.).
(§2) The compounds of the present invention were tested for their capacity to inhibit HBsAg and HBeAg as described herein.

HBsAg = experiment: PHH natural infection assay, HBsAg (alphalisa); format: cell-based, HBV
Description: as §1, §2

[1] = Cytotoxicity in PHH natural infection assay (Cell Counting Kit-8); format: cell-based; conditions: HBV-infected primary human hepatocytes, CCK8
Description: as §1

[2] = Hepatitis B virus, Hepatocyte, read-out: HBeAg IC50, HBV-infected primary human hepatocytes, supernatant, alphalisa
[3] = Hepatitis B virus, Hepatocyte, read-out: HBsAg IC50, HBV-infected primary human hepatocytes, supernatant, alphalisa
[4] = read-out: HBeAg IC50, HBV-infected primary human hepatocytes, supernatant, alphalisa
[5] = read-out: HBsAg IC50, HBV-infected primary human hepatocytes, supernatant, alphalisa

Row | SMILES | IC50 (HBeAg; [2]) [µM] | IC50 (HBsAg; [3]) [µM] | CC50 at 144 h [1] [µM] | IC50 (HBeAg; [4]) [µM] | IC50 (HBsAg; [5]) [µM]
1 | O=C(NC1CC2(C1)CC(c1nc3cc(Cl)ccc3o1)C2)C1CCN(C(=O)C2CCC2)C1 (stereo not drawn) [Example 75, N-[6-(5-chloro-1,3-benzoxazol-2-yl)spiro[3.3]heptan-2-yl]-1-(cyclobutanecarbonyl)pyrrolidine-3-carboxamide] | 8.96 | 9.58 | > 10 | – | –
2 | CCN(C)C(=O)NC1CC2(C1)CC(c1nc3cc(Cl)ccc3o1)C2 (stereo not drawn) [Example 62, 3-[6-(5-chloro-1,3-benzoxazol-2-yl)spiro[3.3]heptan-2-yl]-1-ethyl-1-methyl-urea] | 2.12 | 3.23 | > 100 | – | –
3 | CCS(=O)(=O)c1cc(C(=O)NC2CC3(C2)CC(c2nc4cc(Cl)ccc4o2)C3)ccn1 (stereo not drawn) [Example 26, N-[6-(5-chloro-1,3-benzoxazol-2-yl)spiro[3.3]heptan-2-yl]-2-ethylsulfonyl-pyridine-4-carboxamide] | 0.19 | 0.28 | 74.1 | – | –
4 | CC(C)S(=O)(=O)NC1CC2(C1)CC(c1nc3cc(Cl)ccc3o1)C2 (stereo not drawn) [Example 58, N-[6-(5-chloro-1,3-benzoxazol-2-yl)spiro[3.3]heptan-2-yl]propane-2-sulfonamide] | 5.97 | 6.19 | > 100 | – | –
5 | O=C(NC1CC2(C1)CC(c1nc3cc(Cl)ccc3o1)C2)c1ccnc(N2CCCCC2)c1 (stereo not drawn) [Example 8, N-[6-(5-chloro-1,3-benzoxazol-2-yl)spiro[3.3]heptan-2-yl]-2-(1-piperidyl)pyridine-4-carboxamide] | 4.05 | 4.73 | > 10 | – | –
6 | Cc1csc(-c2cc(C(=O)NC3CC4(C3)CC(c3nc5cc(Cl)ccc5o3)C4)ccn2)n1 (stereo not drawn) [Example 14, N-[6-(5-chloro-1,3-benzoxazol-2-yl)spiro[3.3]heptan-2-yl]-2-(4-methylthiazol-2-yl)pyridine-4-carboxamide] | 4.08 | 6.36 | > 10 | – | –
7 | CCCS(=O)(=O)N1CCC(C(=O)NC2CC3(C2)CC(c2nc4cc(Cl)ccc4o2)C3)C1 (stereo not drawn) [Example 71, N-[6-(5-chloro-1,3-benzoxazol-2-yl)spiro[3.3]heptan-2-yl]-1-propylsulfonyl-pyrrolidine-3-carboxamide] | 9.43 | 9.73 | > 10 | – | –
8 | CNC(=O)c1cc(C(=O)NC2CC3(C2)CC(c2nc4cc(Cl)ccc4o2)C3)ccn1 (stereo not drawn) [Example 102, N4-[6-(5-chloro-1,3-benzoxazol-2-yl)spiro[3.3]heptan-2-yl]-N2-methyl-pyridine-2,4-dicarboxamide] | 2.28 | 2.69 | > 10 | – | –
9 | O=C(NC1CC2(C1)CC(c1nc3cc(Cl)ccc3o1)C2)N1CCCC1 (stereo not drawn) [Example 66, N-[6-(5-chloro-1,3-benzoxazol-2-yl)spiro[3.3]heptan-2-yl]pyrrolidine-1-carboxamide] | 1.97 | 2.5 | 92.1 | – | –
10 | O=C(NC1CC2(C1)CC(c1nc3cc(Cl)ccc3o1)C2)N1CCS(=O)(=O)CC1 (stereo not drawn) [Example 68, N-[6-(5-chloro-1,3-benzoxazol-2-yl)spiro[3.3]heptan-2-yl]-1,1-dioxo-1,4-thiazinane-4-carboxamide] | 4.12 | 6.65 | > 100 | – | –
11 | CS(=O)(=O)c1cc(C(=O)NC2CC3(C2)CC(c2nc4cc(Cl)ccc4o2)C3)ccn1 (stereo not drawn) [Example 23, N-[6-(5-chloro-1,3-benzoxazol-2-yl)spiro[3.3]heptan-2-yl]-2-methylsulfonyl-pyridine-4-carboxamide] | 0.49 | 0.57 | 94.1 | – | –
12 | CC(C)N(C)c1cc(C(=O)NC2CC3(C2)CC(c2nc4cc(Cl)ccc4o2)C3)ccn1 (stereo not drawn) [Example 12, N-[6-(5-chloro-1,3-benzoxazol-2-yl)spiro[3.3]heptan-2-yl]-2-[isopropyl(methyl)amino]pyridine-4-carboxamide] | 1.55 | 2.03 | > 10 | – | –
13 | CS(=N)(=O)c1cc(C(=O)NC2CC3(C2)CC(c2nc4cc(Cl)ccc4o2)C3)ccn1 (stereo not drawn) [Example 89, N-[6-(5-chloro-1,3-benzoxazol-2-yl)spiro[3.3]heptan-2-yl]-2-(methylsulfonimidoyl)pyridine-4-carboxamide] | 0.86 | 2.45 | > 100 | – | –
14 | O=C(NC1CC2(C1)CC(c1nc3cc(Cl)cnc3o1)C2)c1ccnc(S(=O)(=O)C2CC2)c1 (stereo not drawn) [Example 85, N-[6-(6-chlorooxazolo[5,4-b]pyridin-2-yl)spiro[3.3]heptan-2-yl]-2-cyclopropylsulfonyl-pyridine-4-carboxamide] | 0.73 | 0.81 | > 10 | – | –
15 | CCN(CC)c1cc(C(=O)NC2CC3(C2)CC(c2nc4cc(Cl)ccc4o2)C3)ccn1 (stereo not drawn) [Example 6, N-[6-(5-chloro-1,3-benzoxazol-2-yl)spiro[3.3]heptan-2-yl]-2-(diethylamino)pyridine-4-carboxamide] | 4.87 | 6.56 | > 10 | – | –
16 | O=C(NC1CC2(C1)CC(c1nc3cc(Cl)ccc3o1)C2)c1ccnc(C(F)(F)F)c1 (stereo not drawn) [Example 21, N-[6-(5-chloro-1,3-benzoxazol-2-yl)spiro[3.3]heptan-2-yl]-2-(trifluoromethyl)pyridine-4-carboxamide] | 1.98 | 1.82 | 82 | – | –
17 | [H][C@]1(NC(=O)c2ccnc(S(=O)(=O)C3CC3)c2)C[C@@]2(C1)C[C@]([H])(c1nc3cc(Cl)ccc3o1)C2 (single isomer, unassigned) [Example 84b, (Sa)—N-[6-(5-chloro-1,3-benzoxazol-2-yl)spiro[3.3]heptan-2-yl]-2-cyclopropylsulfonyl-pyridine-4-carboxamide] | – | – | > 10 | 1.61 | 1.9
18 | N#Cc1cc(C(=O)NC2CC3(C2)CC(c2nc4cc(Cl)ccc4o2)C3)ccn1 (stereo not drawn) [Example 18, N-[6-(5-chloro-1,3-benzoxazol-2-yl)spiro[3.3]heptan-2-yl]-2-cyano-pyridine-4-carboxamide] | 4.87 | 4.86 | > 10 | – | –
19 | O=C(NC1CC2(C1)CC(c1nc3cc(Cl)ccc3o1)C2)c1ccnc(N2CCCC2=O)c1 (stereo not drawn) [Example 13, N-[6-(5-chloro-1,3-benzoxazol-2-yl)spiro[3.3]heptan-2-yl]-2-(2-oxopyrrolidin-1-yl)pyridine-4-carboxamide] | 3.94 | 3.75 | > 10 | – | –
20 | Cc1ccc(S(=O)(=O)N2CCC(CC(=O)NC3CC4(C3)CC(c3nc5cc(Cl)ccc5o3)C4)CC2)cc1 (stereo not drawn) [Example 80, N-[6-(5-chloro-1,3-benzoxazol-2-yl)spiro[3.3]heptan-2-yl]-2-[1-(p-tolylsulfonyl)-4-piperidyl]acetamide] | 3.93 | 3.64 | > 10 | – | –
21 | [H][C@]1(NC(=O)C2CCS(=O)(=O)CC2)C[C@@]2(C1)C[C@]([H])(c1nc3cc(Cl)ccc3o1)C2 (single isomer, unassigned) [Example 82b, (Sa)—N-[6-(5-chloro-1,3-benzoxazol-2-yl)spiro[3.3]heptan-2-yl]-1,1-dioxo-thiane-4-carboxamide] | – | – | > 100 | 1.47 | 2.04
22 | O=C(CC1CCCS1(=O)=O)NC1CC2(C1)CC(c1nc3cc(Cl)ccc3o1)C2 (stereo not drawn) [Example 47, N-[6-(5-chloro-1,3-benzoxazol-2-yl)spiro[3.3]heptan-2-yl]-2-(1,1-dioxothiolan-2-yl)acetamide] | 2.1 | 3.46 | > 100 | – | –
23 | O=C(NC1CC2(C1)CC(c1nc3cc(C(F)(F)F)ccc3o1)C2)C1CCS(=O)(=O)CC1 (stereo not drawn) [Example 57, 1,1-dioxo-N-[6-[5-(trifluoromethyl)-1,3-benzoxazol-2-yl]spiro[3.3]heptan-2-yl]thiane-4-carboxamide] | 3.59 | 4.47 | > 100 | – | –
24 | O=C1CCC(CC(=O)NC2CC3(C2)CC(c2nc4cc(Cl)ccc4o2)C3)N1 (stereo not drawn) [Example 37, N-[6-(5-chloro-1,3-benzoxazol-2-yl)spiro[3.3]heptan-2-yl]-2-(5-oxopyrrolidin-2-yl)acetamide] | 3.75 | 6 | > 10 | – | –
